From PubChem BioAssay AID2060896 (Molecular Pharmacology Branch, DTP, NCI, 2025)

System: 941728-121-R-J1-PDC complex spheroid viability
Assay: Anticancer human tumor 941728-121-R-J1-PDC patient-derived lung adenocarcinoma cell line growth inhibition [RAS]
Conditions: for IC50: curve of first compound; for viability, T/C: stronger effect = lower value
Outline: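 Multi-cell-type spheroids: tumor cells plus HUVEC endothelial cells and mesenchymal stem cells. RAS-pathway inhibitors were combined with targeted agents, each dosed in half-log steps down from clinical Cmax, or from 10 microM when Cmax was unknown.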

[1] = second compound 0.00316 µM, first compound 0.0316 µM
[2] = second compound 0.00316 µM, first compound 0.1 µM
[3] = second compound 0.00316 µM, first compound 0.316 µM
[4] = second compound 0.00316 µM, first compound 1 µM
[5] = second compound 0.01 µM, first compound 0.0316 µM
[6] = second compound 0.01 µM, first compound 0.1 µM
[7] = second compound 0.01 µM, first compound 0.316 µM
[8] = second compound 0.01 µM, first compound 1 µM
[9] = second compound 0.0316 µM, first compound 0.0316 µM
[10] = second compound 0.0316 µM, first compound 0.1 µM
[11] = second compound 0.0316 µM, first compound 0.316 µM
[12] = second compound 0.0316 µM, first compound 1 µM
[13] = second compound 0.1 µM, first compound 0.0316 µM
[14] = second compound 0.1 µM, first compound 0.1 µM
[15] = second compound 0.1 µM, first compound 0.316 µM
[16] = second compound 0.1 µM, first compound 1 µM
[17] = second compound 0.316 µM, first compound 0.0316 µM
[18] = second compound 0.316 µM, first compound 0.1 µM
[19] = second compound 0.316 µM, first compound 0.316 µM
[20] = second compound 0.316 µM, first compound 1 µM
[21] = second compound 1 µM, first compound 0.0316 µM
[22] = second compound 1 µM, first compound 0.1 µM
[23] = second compound 1 µM, first compound 0.316 µM
[24] = second compound 1 µM, first compound 1 µM
[25] = second compound 0.00316 µM, first compound 3.16 µM
[26] = second compound 0.00316 µM, first compound 10 µM
[27] = second compound 0.01 µM, first compound 3.16 µM
[28] = second compound 0.01 µM, first compound 10 µM
[29] = second compound 0.0316 µM, first compound 3.16 µM
[30] = second compound 0.0316 µM, first compound 10 µM
[31] = second compound 0.1 µM, first compound 3.16 µM
[32] = second compound 0.1 µM, first compound 10 µM
[33] = second compound 0.316 µM, first compound 3.16 µM
[34] = second compound 0.316 µM, first compound 10 µM
[35] = second compound 1 µM, first compound 3.16 µM
[36] = second compound 1 µM, first compound 10 µM
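Also: spheroids exposed to compounds for 7 days before readout.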
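For viability, T/C in this document: 100% = DMSO vehicle control viability.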

**Q.** What does the source list for CCN1CCN(Cc2ccc(Nc3ncc(F)c(-c4cc(F)c5nc(C)n(C(C)C)c5c4)n3)nc2)CC1 + C=CC(=O)N1CCN(c2nc(OCC3CCCN3C)nc3c(F)c(-c4nc(N)cc(C)c4C(F)(F)F)c(Cl)cc23)C(C)C1?
**A.** IC50 (second compound 0.00316 µM): < 3.16 nM; IC50 (second compound 0.01 µM): < 3.16 nM; IC50 (second compound 0.0316 µM): < 3.16 nM; IC50 (second compound 0.1 µM): < 3.16 nM; IC50 (second compound 0.316 µM): < 3.16 nM; IC50 (second compound 1 µM): < 3.16 nM; viability, T/C (second compound 0.00316 µM, first compound 0.00316 µM): 21.3%; viability, T/C (second compound 0.00316 µM, first compound 0.01 µM): 18.4%; viability, T/C [1]: 18.1%; viability, T/C [2]: 20.8%; viability, T/C [3]: 15.6%; viability, T/C [4]: 15.6%; viability, T/C (second compound 0.01 µM, first compound 0.00316 µM): 20.1%; viability, T/C (second compound 0.01 µM, first compound 0.01 µM): 18.5%; viability, T/C [5]: 17.5%; viability, T/C [6]: 15.9%; viability, T/C [7]: 13.1%; viability, T/C [8]: 12.6%; viability, T/C (second compound 0.0316 µM, first compound 0.00316 µM): 18.4%; viability, T/C (second compound 0.0316 µM, first compound 0.01 µM): 20.1%; viability, T/C [9]: 14.6%; viability, T/C [10]: 13.5%; viability, T/C [11]: 13.8%; viability, T/C [12]: 15.1%; viability, T/C (second compound 0.1 µM, first compound 0.00316 µM): 18.8%; viability, T/C (second compound 0.1 µM, first compound 0.01 µM): 19%; viability, T/C [13]: 18.6%; viability, T/C [14]: 15.8%; viability, T/C [15]: 14.4%; viability, T/C [16]: 13.5%; viability, T/C (second compound 0.316 µM, first compound 0.00316 µM): 18%; viability, T/C (second compound 0.316 µM, first compound 0.01 µM): 17.4%; viability, T/C [17]: 18.5%; viability, T/C [18]: 17.3%; viability, T/C [19]: 13.2%; viability, T/C [20]: 13.9%; viability, T/C (second compound 1 µM, first compound 0.00316 µM): 21.6%; viability, T/C (second compound 1 µM, first compound 0.01 µM): 18.8%; viability, T/C [21]: 20.6%; viability, T/C [22]: 16.5%; viability, T/C [23]: 14.7%; viability, T/C [24]: 13.2%

**Q.** Which results are given for Cc1nc(N2CCC3(CC2)COC(C)C3N)c(CO)nc1Sc1ccnc(N)c1Cl (stereo unspecified) + C=CC(=O)N1CCN(c2nc(OCC3CCCN3C)nc3c(F)c(-c4nc(N)cc(C)c4C(F)(F)F)c(Cl)cc23)C(C)C1?
**A.** IC50 (second compound 0.00316 µM): < 31.6 nM; IC50 (second compound 0.01 µM): < 31.6 nM; IC50 (second compound 0.0316 µM): < 31.6 nM; IC50 (second compound 0.1 µM): < 31.6 nM; IC50 (second compound 0.316 µM): < 31.6 nM; IC50 (second compound 1 µM): < 31.6 nM; viability, T/C [1]: 19%; viability, T/C [2]: 17.5%; viability, T/C [3]: 16.5%; viability, T/C [4]: 17.4%; viability, T/C [25]: 16.4%; viability, T/C [26]: 17.3%; viability, T/C [5]: 17.8%; viability, T/C [6]: 17.4%; viability, T/C [7]: 18.4%; viability, T/C [8]: 20.9%; viability, T/C [27]: 16.2%; viability, T/C [28]: 16.3%; viability, T/C [9]: 18.5%; viability, T/C [10]: 18.3%; viability, T/C [11]: 13.9%; viability, T/C [12]: 15.6%; viability, T/C [29]: 15.9%; viability, T/C [30]: 16.9%; viability, T/C [13]: 19%; viability, T/C [14]: 16.7%; viability, T/C [15]: 15.5%; viability, T/C [16]: 17.6%; viability, T/C [31]: 17.8%; viability, T/C [32]: 14.9%; viability, T/C [17]: 19.3%; viability, T/C [18]: 28.2%; viability, T/C [19]: 18.2%; viability, T/C [20]: 16.4%; viability, T/C [33]: 15.9%; viability, T/C [34]: 15.9%; viability, T/C [21]: 20.2%; viability, T/C [22]: 18.2%; viability, T/C [23]: 15.9%; viability, T/C [24]: 16.1%; viability, T/C [35]: 19.1%; viability, T/C [36]: 18.1%

**Q.** NC1c2ccccc2OC12CCN(c1cnc3c(N4CCCc5ncccc54)n[nH]c3n1)CC2 (stereo unspecified) + C=CC(=O)N1CCN(c2nc(OCC3CCCN3C)nc3c(F)c(-c4nc(N)cc(C)c4C(F)(F)F)c(Cl)cc23)C(C)C1 was tested. Which IC50 (second compound 0.00316 µM) did it give?
**A.** The IC50 was less than 31.6 nM.

**Q.** And the IC50 (second compound 0.01 µM)?
**A.** Its IC50 is less than 31.6 nM.

**Q.** What about the IC50 (second compound 0.0316 µM) of the same compound?
**A.** Its IC50 is less than 31.6 nM.

**Q.** What about the IC50 (second compound 0.1 µM) of the same compound?
**A.** Its IC50 is less than 31.6 nM.

**Q.** And the IC50 (second compound 0.316 µM)?
**A.** The IC50 was less than 31.6 nM.

**Q.** And the IC50 (second compound 1 µM)?
**A.** Its IC50 is less than 31.6 nM.

**Q.** What about the viability, T/C [1] of the same compound?
**A.** The viability, T/C was 15.4%.

**Q.** What about the viability, T/C [2] of the same compound?
**A.** The viability, T/C was 15.1%.

**Q.** What about the viability, T/C [3] of the same compound?
**A.** The viability, T/C was 15.6%.

**Q.** And the viability, T/C [4]?
**A.** Its viability, T/C is 17%.

**Q.** What about the viability, T/C [25] of the same compound?
**A.** The viability, T/C was 16.8%.

**Q.** What about the viability, T/C [26] of the same compound?
**A.** The viability, T/C was 17.1%.

**Q.** And the viability, T/C [5]?
**A.** Its viability, T/C is 18.8%.

**Q.** What about the viability, T/C [6] of the same compound?
**A.** Its viability, T/C is 15.7%.

**Q.** What about the viability, T/C [7] of the same compound?
**A.** The viability, T/C was 16.2%.

**Q.** What about the viability, T/C [8] of the same compound?
**A.** The viability, T/C was 15.5%.

**Q.** And the viability, T/C [27]?
**A.** Its viability, T/C is 17.1%.

**Q.** And the viability, T/C [28]?
**A.** Its viability, T/C is 17.5%.

**Q.** And the viability, T/C [9]?
**A.** Its viability, T/C is 16.4%.

**Q.** What about the viability, T/C [10] of the same compound?
**A.** The viability, T/C was 15.7%.

**Q.** And the viability, T/C [11]?
**A.** Its viability, T/C is 15.8%.

**Q.** What about the viability, T/C [12] of the same compound?
**A.** Its viability, T/C is 16.8%.

**Q.** And the viability, T/C [29]?
**A.** The viability, T/C was 15.9%.

**Q.** And the viability, T/C [30]?
**A.** Its viability, T/C is 16.3%.

**Q.** What about the viability, T/C [13] of the same compound?
**A.** Its viability, T/C is 15%.

**Q.** What about the viability, T/C [14] of the same compound?
**A.** Its viability, T/C is 15.3%.

**Q.** And the viability, T/C [15]?
**A.** Its viability, T/C is 16%.

**Q.** And the viability, T/C [16]?
**A.** Its viability, T/C is 17.6%.

**Q.** What about the viability, T/C [31] of the same compound?
**A.** Its viability, T/C is 17%.

**Q.** And the viability, T/C [32]?
**A.** The viability, T/C was 17%.

**Q.** What about the viability, T/C [17] of the same compound?
**A.** The viability, T/C was 16.3%.

**Q.** And the viability, T/C [18]?
**A.** Its viability, T/C is 16.8%.

**Q.** What about the viability, T/C [19] of the same compound?
**A.** Its viability, T/C is 17%.

**Q.** What about the viability, T/C [20] of the same compound?
**A.** The viability, T/C was 16.9%.

**Q.** And the viability, T/C [33]?
**A.** Its viability, T/C is 15.7%.

**Q.** And the viability, T/C [34]?
**A.** Its viability, T/C is 16%.

**Q.** And the viability, T/C [21]?
**A.** The viability, T/C was 16.1%.

**Q.** What about the viability, T/C [22] of the same compound?
**A.** Its viability, T/C is 15.1%.

**Q.** And the viability, T/C [23]?
**A.** The viability, T/C was 16%.

**Q.** What about the viability, T/C [24] of the same compound?
**A.** Its viability, T/C is 16.6%.

**Q.** What about the viability, T/C [35] of the same compound?
**A.** Its viability, T/C is 17.6%.

**Q.** What about the viability, T/C [36] of the same compound?
**A.** The viability, T/C was 17.2%.
